Among the data in US11077100B2, “Tetrahydroquinoline derivatives as P2X7 receptor antagonists” (RaQualia Pharma Inc., priority 2017, dated 2021) are IC50 values, retold here.

Structures are written as SMILES. A value given as a limit tells only on which side of the number the result lay.

The test addresses human P2X7 (Homo sapiens (Human), UniProt Q99572). Briefly: Human P2X7 functional assay (Ca2+ influx, Fluo-4, FDSS). Format: cell-based. The settings on record: antagonistic activity with respect to the human P2X7 receptor; BzATP final concentration 80 microM. On the procedure: The ability of the 5,6,7,8-tetrahydroquinoline and 6,7-dihydro-5H-cyclopenta[b]pyridine derivatives of the formula (I) to inhibit the P2X7 channel was measured by Ca^2+ influx assay and electrophysiology assay described below.
Human P2X7 Functional Assay
The functional activity of compounds was determined by measuring changes in intracellular calcium concentration using a Ca^2+-sensitive fluorescent dye, Fluo-4 (Molecular Probes). The changes in fluorescent signal were monitored by the cell imaging technology by Hamamatsu Photonics's Functional Drug Screening System (FDSS). Increases in intracellular Ca^2+ concentration were readily detected upon activation with BzATP.
HEK293 cells stably expressing human P2X7 (GenBank accession number BC011913) carrying a C-terminal FLAG tag were grown in T225 flasks, in a 5% CO2 humidified incubator to about 80% confluence. Media composition consisted of Dulbecco's Modified Eagle Medium (high glucose), 10% fetal bovine serum ([…]), 100 units/[…] Penicillin, 100 microg/mL Streptomycin and 250 microg/mL Geneticine.
1. Plate-out HEK293-human P2X7 cells (40 microL medium containing 10,000 cells per well) into poly-D-lysine coated 384-well plates (Corning) at 24 h prior to assay.
2. Incubate at 37° C. in 5% CO2.
3. Incubate the plate at 37° C. in 5% CO2 for 1 h.
5. Test compounds were prepared at 100× the test concentration in DMSO by serial dilution with Biomek-FX liquid handling instrument. 33× diluted compound solutions in assay buffer were prepared in intermediate compound plate with Biomek-NX liquid handling instrument. A further 3× dilution occurred in below steps 6 and 7.
6. Add 20 microL of 33× diluted compound solutions into each well and leave the plate for 10 min under the dark at room temperature.
7. Measure activity by FDSS as follows: • Set the assay plate on the stacker of FDSS. • Start the detection of fluorescence intensity at 540 nm by 480 nm exicitation. • After 30 seconds, add 20 microL of assay buffer containing 240 microM BzATP (final concentration 80 microM).
IC50 values for compounds of the present invention were determined from 7-point dose-response studies. Curves were generated using the average of duplicate wells for each data point. Finally, the IC50 values are calculated with the best-fit dose curve determined by XLfit (ID Business Solutions Ltd.).

human P2X7, sequence (Q99572 whole entry): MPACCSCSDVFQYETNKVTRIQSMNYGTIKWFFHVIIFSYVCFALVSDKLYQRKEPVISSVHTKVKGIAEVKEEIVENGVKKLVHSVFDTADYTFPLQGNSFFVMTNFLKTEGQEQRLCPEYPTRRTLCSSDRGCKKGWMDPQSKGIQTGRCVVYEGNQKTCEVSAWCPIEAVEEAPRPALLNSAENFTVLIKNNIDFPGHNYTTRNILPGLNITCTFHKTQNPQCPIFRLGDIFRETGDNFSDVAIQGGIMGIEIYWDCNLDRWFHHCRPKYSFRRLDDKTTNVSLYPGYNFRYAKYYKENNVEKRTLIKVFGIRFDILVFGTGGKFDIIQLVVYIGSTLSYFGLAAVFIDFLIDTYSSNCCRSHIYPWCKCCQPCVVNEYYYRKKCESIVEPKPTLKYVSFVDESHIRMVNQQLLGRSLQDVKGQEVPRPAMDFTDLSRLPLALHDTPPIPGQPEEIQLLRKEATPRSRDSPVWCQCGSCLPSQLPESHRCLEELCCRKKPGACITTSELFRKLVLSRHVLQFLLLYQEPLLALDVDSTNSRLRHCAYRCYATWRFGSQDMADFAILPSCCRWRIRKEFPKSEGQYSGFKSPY

As to `O=C(NCC(c1ccccc1)N1CCOCC1)[C@]1(F)CC[C@H](O)c2ncccc21` (mixture of isomers) [Example 235, (5S,8S)-5-fluoro-8-hydroxy-N-((rac)-2-morpholino-2-phenylethyl)-5,6,7,8-tetrahydroquinoline-5-carboxamide], the IC50 (in general, the concentration needed to halve the response being measured) lay within 1000 to 3000 nM.

Compound `O=C1CCC(C(=O)NCc2c(Cl)cc(Cl)cc2CO)c2cccnc21` (stereo not drawn) [Example 4, N-(2,4-dichloro-6-(hydroxy-methyl)benzyl)-8-oxo-5,6,7,8-tetrahydroquinoline-5-carboxamide] gave a concentration for half-maximal inhibition (IC50) of less than 50 nM.

Regarding `O=C1CCC(C(=O)NCC2CCCCCC2)c2cccnc21` (stereo not drawn) [Example 5, N-(cycloheptylmethyl)-8-oxo-5,6,7,8-tetrahydro-quinoline-5-carboxamide], the 50% inhibitory concentration (IC50) was in the range of 1000 to 3000 nM.

Turning to `Cc1cc(Cl)cc(Cl)c1CNC(=O)C1(O)CCC(=O)c2ncccc21` (stereo not drawn) [Example 15, N-(2,4-dichloro-6-methylbenzyl)-5-hydroxy-8-oxo-5,6,7,8-tetrahydro-quinoline-5-carboxamide], the concentration for half-maximal inhibition (IC50) fell in the range of 301 to 1000 nM.

Regarding `O=C1CC(C(=O)NCc2cccc(C(F)(F)F)c2Cl)c2cccnc21` (stereo not drawn) [Example 17, N-(2-chloro-3-(trifluoromethyl)benzyl)-7-oxo-6,7-dihydro-5H-cyclopenta[b] pyridine-5-carboxamide], the IC50 was in the range of 50 to 100 nM.

`Cc1cc(Cl)cc(Cl)c1CNC(=O)C1CCC(CC(=O)O)c2ncccc21` (stereo not drawn) [Example 30, 2-(5-((2,4-dichloro-6-methyl-benzyl)carbamoyl)-5,6,7,8-tetrahydroquinolin-8-yl) acetic acid] registered a 50% inhibitory concentration (IC50) of less than 50 nM.

Turning to `O=C(O)CC1CCC(C(=O)NCc2cccc(C(F)(F)F)c2Cl)c2cccnc21` (stereo not drawn) [Example 31, 2-(5-((2-chloro-3-(trifluoro-methyl)benzyl)carbamoyl)-5,6,7,8-tetrahydroquinolin-8-yl)acetic acid], the IC50 lay in the range of 50 to 100 nM.

`Cc1cc(Cl)cc(Cl)c1CNC(=O)[C@H]1CC[C@H](O)c2ncccc21` [Example 63, (5S,8S)-N-(2,4-dichloro-6-methylbenzyl)-8-hydroxy-5,6,7,8-tetrahydro-quinoline-5-carboxamide] displayed a concentration for half-maximal inhibition (IC50) of 101 to 300 nM.

Take `Cc1cc(Cl)cc(Cl)c1CNC(=O)C1CC[C@H](O)c2ncccc21` (stereo partly drawn) [Example 64, (5R,8S)-N-(2,4-dichloro-6-methylbenzyl)-8-hydrdroxy-5,6,7,8-tetra-hydroxyquinoline-5-carboxamide]: the half-maximal inhibitory concentration (IC50) was less than 50 nM.

`O=C(NCc1ccc(Cl)cc1Cl)[C@H]1CC[C@H](O)c2ncccc21` [Example 65, (5S,8S)-N-(2,4-dichloro-benzyl)-8-hydroxy-5,6,7,8-tetrahydroquinoline-5-carboxamide] gave a concentration for half-maximal inhibition (IC50) of 301 to 1000 nM.

As for `O=C(NCc1c(F)cc(Cl)cc1Cl)[C@H]1CC[C@H](O)c2ncccc21` [Example 69, (5S,8S)-N-(2,4-dichloro-6-fluorobenzyl)-8-hy-droxy-5,6,7,8-tetrahydro-quinoline-5-carboxamide], the IC50 was 301 to 1000 nM.

`O=C(NCc1ccc(F)c(F)c1F)[C@H]1CC[C@H](O)c2ncccc21` [Example 71, (5S,8S)-8-hydroxy-N-(2,3,4-trifluorobenzyl)-5,6,7,8-tetrahydroquinoline-5-carboxamide] gave a 50% inhibitory concentration (IC50) of 301 to 1000 nM.

The compound `O=C(NCc1c(F)cc(F)cc1F)[C@@H]1CC[C@H](O)c2ncccc21` [Example 73, (5R,8S)-8-hydroxy-N-(2,4,6-trifluorobenzyl)-5,6,7,8-tetrahydroquinoline-5-carboxamide] returned an IC50 of 101 to 300 nM.

`O=C(NCc1ccc(F)cc1C(F)(F)F)[C@H]1CC[C@H](O)c2ncccc21` [Example 75, (5S,8S)-N-(4-fluoro-2-(tri-fluoromethyl)benzyl)-8-hydroxy-5,6,7,8-tetra-hydroquinoline-5-carbox-amide] came in with a half-inhibitory concentration (IC50) of 1000 to 3000 nM.

`O=C(NCc1ccc(Cl)cc1F)[C@H]1CC[C@H](O)c2ncccc21` [Example 77, (5S,8S)-N-(4-chloro-2-fluorobenzyl)-8-hydroxy-5,6,7,8-tetrahydroquinoline-5-carboxamide] registered an IC50 of 301 to 1000 nM.

The compound `O=C(NCc1ccc(Br)cc1F)[C@H]1CC[C@H](O)c2ncccc21` [Example 79, (5S,8S)-N-(4-bromo-2-fluorobenzyl)-8-hydroxy-5,6,7,8-tetrahydroquinoline-5-carboxamide] displayed an IC50 of 301 to 1000 nM.

With `O=C(NCc1cccc(C(F)(F)F)c1Cl)[C@H]1CC[C@H](O)c2ncccc21` [Example 86, (5S,8S)-N-(2-chloro-3-(trifluoromethyl)benzyl)-8-hydroxy-5,6,7,8-tetra-hydroxyqinoline-5-carboxamide], the IC50 fell in the range of 101 to 300 nM.

With `O=C(NCc1ccc(F)cc1Cl)[C@H]1CC[C@@H](O)c2ncccc21` [Example 90, (5S,8R)-N-(2-chloro-4-fluorobenzyl)-8-hydroxy-5,6,7,8-tetrahydroquinoline-5-carboxamide], the IC50 was 101 to 300 nM.

On to `O=C(NCc1c(F)cc(Cl)cc1Cl)[C@@H]1CC[C@@H](O)c2ncccc21` [Example 91, (5R,8R)-N-(2,4-dichloro-6-fluorobenzyl)-8-hy-droxy-5,6,7,8-tetrahydro-quinoline-5-carboxamide], for which the concentration for half-maximal inhibition (IC50) lay in the range of 101 to 300 nM.

On to `O=C(NCc1c(F)cc(Cl)cc1Cl)[C@H]1CC[C@@H](O)c2ncccc21` [Example 92, (5S,8R)-N-(2,4-dichloro-6-fluorobneyzl)-8-hy-droxy-5,6,7,8-tetrahydro-quinoline-5-carboxamide], for which the IC50 is 101 to 300 nM.

For `O=C(NCc1ccc(F)c(F)c1F)[C@@H]1CC[C@@H](O)c2ncccc21` [Example 93, (5R,8R)-8-hydroxy-N-(2,3,4-trifluorobenzyl)-5,6,7,8-tetrahydroquinoline-5-carboxamide], the IC50 lay within 1000 to 3000 nM.

Compound `O=C(NCc1ccc(F)c(F)c1F)[C@H]1CC[C@@H](O)c2ncccc21` [Example 94, (5S,8R)-8-hydroxy-N-(2,3,4-trifluorobenzyl)-5,6,7,8-tetrahydroquinoline-5-carboxamide] registered an IC50 of 1000 to 3000 nM.

With `O=C(NCc1ccc(Cl)cc1F)[C@@H]1CC[C@@H](O)c2ncccc21` [Example 95, (5R,8R)-N-(4-chloro-2-fluorobenzyl)-8-hydroxy-5,6,7,8-tetrahydroquinoline-5-carboxamide], the IC50 lay within 1000 to 3000 nM.

Take `O=C(NCc1ccc(Cl)cc1F)[C@H]1CC[C@@H](O)c2ncccc21` [Example 96, (5S,8R)-N-(4-chloro-2-fluorobenzyl)-8-hydroxy-5,6,7,8-tetrahydroquinoline-5-carboxamide]: the IC50 lay in the range of 1000 to 3000 nM.

Compound `Cc1cc(Cl)cc(Cl)c1CNC(=O)[C@H]1C[C@@H](O)c2ncccc21` [Example 98, (5S,7R)-N-(2,4-dichloro-6-methylbenzyl)-7-hy-droxy-6,7-dihydro-5H-cyclopenta[b]pyridin-5-carboxamide] returned an IC50 of 101 to 300 nM.

`Cc1cc(Cl)cc(Cl)c1CNC(=O)[C@@]1(F)CC[C@H](O)c2ncccc21` [Example 99, (5R,8S)-N-(2,4-dichloro-6-methylbenzyl)-5-fluoro-8-hydroxy-5,6,7,8-tetrahydroquinoline-5-carboxamide]: the half-maximal inhibitory concentration (IC50) was less than 50 nM.

In turn, `O=C(NCc1cccc(C(F)(F)F)c1Cl)[C@@]1(F)CC[C@H](O)c2ncccc21` [Example 101, (5R,8S)-N-(2-chloro-3-(trifluoromethyl)benzyl)-5-fluoro-8-hydroxy-5,6,7,8-tetrahydroquinoline-5-carboxamide] yielded an IC50 of 101 to 300 nM.
